Reference: BindingDB's records for doi:10.7270/Q2J38R0R (Burnham Center For Chemical Genomics, 2010)

Target: Intestinal-type alkaline phosphatase (Mus musculus, UniProt P24822)
Test: mouse intestinal alkaline phosphatase activators, dose response, biochemical, luminescence, uHTS hits (AID 488783)

Intestinal-type alkaline phosphatase, sequence (P24822 whole entry, looked up): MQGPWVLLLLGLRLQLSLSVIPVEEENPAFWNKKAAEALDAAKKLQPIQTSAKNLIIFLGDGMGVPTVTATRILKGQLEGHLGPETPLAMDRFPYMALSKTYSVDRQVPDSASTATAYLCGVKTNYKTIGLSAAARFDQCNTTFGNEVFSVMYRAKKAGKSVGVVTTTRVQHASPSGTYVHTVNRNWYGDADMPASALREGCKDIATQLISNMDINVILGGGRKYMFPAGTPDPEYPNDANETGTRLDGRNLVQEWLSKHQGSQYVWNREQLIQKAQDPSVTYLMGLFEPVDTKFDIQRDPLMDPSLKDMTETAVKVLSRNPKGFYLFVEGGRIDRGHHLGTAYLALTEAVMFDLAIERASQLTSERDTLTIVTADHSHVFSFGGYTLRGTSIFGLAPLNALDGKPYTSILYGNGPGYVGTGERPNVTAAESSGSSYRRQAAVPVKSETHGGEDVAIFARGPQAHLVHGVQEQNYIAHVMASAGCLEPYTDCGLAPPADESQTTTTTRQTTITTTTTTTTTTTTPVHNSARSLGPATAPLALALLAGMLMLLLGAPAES

EC50 [µM]	SMILES
4.96	O=C(NN=CC1=CC(=O)C(=O)CC1)NN=CC1=CC(=O)C(=O)CC1 [1,3-bis[[(Z)-(3-hydroxy-4-oxocyclohexa-2,5-dien-1-ylidene)methyl]amino]urea]
58.7	Cc1cc(=O)[nH]c(N=NCc2ccc(O)c(O)c2)n1 [MLS001194906]
9.93	O=C1CC(=O)c2c(O)cc(O)c(O)c2C1=O [4,5,7,8-tetrahydroxy-1,2-naphthoquinone]
17.5	CN(CCO)c1ccc(CN=Nc2ccc([N+](=O)[O-])cc2S(=O)(=O)Nc2ccccc2C(=O)O)cc1
